Holding throughout (assay): radiometric protein kinase assay
The target in one assay is CDK1/cyclin B. It is filed as biochemical, starfish. The note with it: for pIC50: 15 μmol/L ATP; for Residual enzyme activity CDK1/cyclin B: 10 µM concentration, ± SEM.
In another assay the target is T1, CDK2/cyclin A (Homo sapiens, UniProt P24941).
T1 construct: made in house
Type of assay: biochemical. The note with it: for pIC50: 15 μmol/L ATP, read-out: IC50 CDK2/cyclinA; for Residual enzyme activity CDK2/cyclin A: 10 µM concentration, ± SEM.

Another assay deals with T2, CDK5/p25 (Homo sapiens, UniProt Q00535).
T2 construct: made in house
Type of assay: biochemical. The note with it: for pIC50: 15 μmol/L ATP; for Residual enzyme activity CDK5/p25: 10 µM concentration, ± SEM.

For the next assay, the target named is CK1δ/ε. It is filed as biochemical, porcine. The note with it: for pIC50: 15 μmol/L ATP, read-out: IC50 CK1; for Residual enzyme activity CK1: 10 µM concentration, ± SEM.
A further assay has as its target DYRK1A (Homo sapiens, UniProt Q13627). It is filed as biochemical. The note with it: for pIC50: 15 μmol/L ATP, read-out: IC50 DYRK 1A; for Residual enzyme activity DYRK 1A: 10 µM concentration, ± SEM.
For another assay, the target named is DYRK1B (Homo sapiens, UniProt Q9Y463). It is filed as biochemical. The note with it: for pIC50: 15 μmol/L ATP, read-out: IC50 DYRK 1B; for Residual enzyme activity DYRK 1B: 10 µM concentration, ± SEM.
The next assay deals with T3, DYRK2 (Homo sapiens, UniProt Q92630).
T3 sequence (Q92630 1-601): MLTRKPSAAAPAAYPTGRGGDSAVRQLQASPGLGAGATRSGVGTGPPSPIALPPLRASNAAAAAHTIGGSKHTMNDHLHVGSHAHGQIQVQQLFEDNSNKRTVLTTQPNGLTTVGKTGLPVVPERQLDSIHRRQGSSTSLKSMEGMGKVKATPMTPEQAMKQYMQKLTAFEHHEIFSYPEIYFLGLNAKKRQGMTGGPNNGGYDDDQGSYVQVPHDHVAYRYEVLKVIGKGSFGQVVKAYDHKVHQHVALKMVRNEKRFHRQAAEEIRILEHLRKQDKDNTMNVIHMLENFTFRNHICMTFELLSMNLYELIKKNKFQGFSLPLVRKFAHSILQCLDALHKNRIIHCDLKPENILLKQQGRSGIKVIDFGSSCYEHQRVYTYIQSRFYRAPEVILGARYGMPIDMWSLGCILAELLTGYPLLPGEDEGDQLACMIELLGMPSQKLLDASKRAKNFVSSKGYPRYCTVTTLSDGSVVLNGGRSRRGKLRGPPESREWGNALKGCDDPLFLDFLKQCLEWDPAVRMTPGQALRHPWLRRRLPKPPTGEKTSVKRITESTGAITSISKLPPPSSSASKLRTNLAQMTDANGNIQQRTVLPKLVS
Type of assay: biochemical. The note with it: for pIC50: 15 μmol/L ATP, read-out: IC50 DYRK 2; for Residual enzyme activity DYRK 2: 10 µM concentration, ± SEM.

Another assay concerns the target T4, DYRK3 (Homo sapiens, UniProt O43781).
T4 sequence (O43781 1-588): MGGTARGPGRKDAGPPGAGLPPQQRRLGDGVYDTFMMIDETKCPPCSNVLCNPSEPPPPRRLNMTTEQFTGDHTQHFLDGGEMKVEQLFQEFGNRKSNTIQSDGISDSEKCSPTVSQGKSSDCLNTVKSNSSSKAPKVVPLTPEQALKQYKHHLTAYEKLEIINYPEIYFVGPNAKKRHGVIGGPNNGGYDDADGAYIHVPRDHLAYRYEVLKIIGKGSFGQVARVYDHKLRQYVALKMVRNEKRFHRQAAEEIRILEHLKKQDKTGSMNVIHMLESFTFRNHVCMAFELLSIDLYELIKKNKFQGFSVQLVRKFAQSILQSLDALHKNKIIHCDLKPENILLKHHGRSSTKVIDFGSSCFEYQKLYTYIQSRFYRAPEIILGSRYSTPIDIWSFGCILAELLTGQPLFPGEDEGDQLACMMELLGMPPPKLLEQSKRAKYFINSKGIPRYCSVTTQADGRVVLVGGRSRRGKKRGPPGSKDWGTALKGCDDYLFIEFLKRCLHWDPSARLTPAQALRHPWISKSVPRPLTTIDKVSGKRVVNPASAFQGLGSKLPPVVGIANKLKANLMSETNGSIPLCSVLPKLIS
Type of assay: biochemical. The note with it: for pIC50: 15 μmol/L ATP, read-out: IC50 DYRK 3; for Residual enzyme activity DYRK 3: 10 µM concentration, ± SEM.

A further assay deals with GSK-3. It is filed as biochemical, porcine. The note with it: for pIC50: 15 μmol/L ATP, read-out: IC50 GSK3; for Residual enzyme activity GSK3: 10 µM concentration, ± SEM.
In a further assay the target is CDK9/cyclin T (Homo sapiens, UniProt P50750). The note with it: for Residual enzyme activity CDK9/cyclin T: 10 µM concentration, ± SEM.
For the next assay, the target named is CLK1 (Mus musculus, UniProt P22518). The note with it: for Residual enzyme activity CLK 1: 10 µM concentration, ± SEM.
A further assay addresses CLK2 (Mus musculus, UniProt O35491). The note with it: for Residual enzyme activity CLK 2: 10 µM concentration, ± SEM.
Another assay has as its target CLK3 (Mus musculus, UniProt O35492). The note with it: for Residual enzyme activity CLK 3: 10 µM concentration, ± SEM.
For another assay, the target named is CLK4 (Mus musculus, UniProt O35493). The note with it: for Residual enzyme activity CLK 4: 10 µM concentration, ± SEM.

Structures are written as SMILES. pIC50: −log10 of the molar value. Some results are limits rather than exact numbers.

Chain of CLK4 (O35493 whole entry): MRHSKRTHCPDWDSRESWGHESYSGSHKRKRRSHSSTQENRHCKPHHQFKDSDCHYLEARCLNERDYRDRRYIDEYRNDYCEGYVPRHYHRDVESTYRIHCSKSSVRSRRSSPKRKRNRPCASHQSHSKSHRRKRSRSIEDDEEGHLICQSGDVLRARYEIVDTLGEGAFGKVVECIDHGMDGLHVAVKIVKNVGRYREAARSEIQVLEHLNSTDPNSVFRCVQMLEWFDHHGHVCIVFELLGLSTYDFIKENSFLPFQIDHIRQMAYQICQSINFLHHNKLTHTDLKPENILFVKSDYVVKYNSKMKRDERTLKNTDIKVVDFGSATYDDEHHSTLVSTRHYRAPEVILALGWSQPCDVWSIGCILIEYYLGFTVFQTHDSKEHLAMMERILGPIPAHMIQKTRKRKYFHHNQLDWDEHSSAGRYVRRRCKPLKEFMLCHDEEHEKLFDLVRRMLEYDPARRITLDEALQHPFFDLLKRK
Chain of CDK9/cyclin T (P50750 whole entry): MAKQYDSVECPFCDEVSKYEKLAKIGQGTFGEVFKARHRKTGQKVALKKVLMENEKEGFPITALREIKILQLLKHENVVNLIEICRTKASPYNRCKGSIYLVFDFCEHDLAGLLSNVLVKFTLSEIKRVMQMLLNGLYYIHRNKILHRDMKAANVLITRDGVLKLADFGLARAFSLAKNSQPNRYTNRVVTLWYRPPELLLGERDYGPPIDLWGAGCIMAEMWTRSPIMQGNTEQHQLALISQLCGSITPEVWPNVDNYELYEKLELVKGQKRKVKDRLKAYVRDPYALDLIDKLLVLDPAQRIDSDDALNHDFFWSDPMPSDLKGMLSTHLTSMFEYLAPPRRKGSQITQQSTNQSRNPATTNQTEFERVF
Chain of CDK9/cyclin T (O60563 whole entry partner): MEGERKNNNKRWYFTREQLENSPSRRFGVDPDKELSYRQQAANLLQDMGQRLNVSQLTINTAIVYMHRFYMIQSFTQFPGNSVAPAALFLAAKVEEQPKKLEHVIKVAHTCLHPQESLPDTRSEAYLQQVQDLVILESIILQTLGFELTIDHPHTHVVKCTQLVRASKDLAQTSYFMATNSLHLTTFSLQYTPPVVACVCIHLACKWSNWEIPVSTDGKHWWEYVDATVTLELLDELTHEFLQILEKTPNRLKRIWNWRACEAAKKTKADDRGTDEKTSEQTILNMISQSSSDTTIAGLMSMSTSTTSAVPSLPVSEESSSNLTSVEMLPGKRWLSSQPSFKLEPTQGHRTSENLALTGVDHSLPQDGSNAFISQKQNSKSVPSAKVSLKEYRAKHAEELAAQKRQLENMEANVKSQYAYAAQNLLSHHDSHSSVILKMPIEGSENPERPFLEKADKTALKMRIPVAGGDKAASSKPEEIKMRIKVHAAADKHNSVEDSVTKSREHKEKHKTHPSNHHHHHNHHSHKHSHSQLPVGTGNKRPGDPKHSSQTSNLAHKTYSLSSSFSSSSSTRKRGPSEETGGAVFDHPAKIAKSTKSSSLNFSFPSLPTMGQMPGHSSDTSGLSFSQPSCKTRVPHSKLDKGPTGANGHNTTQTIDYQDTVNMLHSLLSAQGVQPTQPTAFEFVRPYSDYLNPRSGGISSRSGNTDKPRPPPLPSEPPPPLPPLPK
Chain of DYRK1B (Q9Y463 whole entry): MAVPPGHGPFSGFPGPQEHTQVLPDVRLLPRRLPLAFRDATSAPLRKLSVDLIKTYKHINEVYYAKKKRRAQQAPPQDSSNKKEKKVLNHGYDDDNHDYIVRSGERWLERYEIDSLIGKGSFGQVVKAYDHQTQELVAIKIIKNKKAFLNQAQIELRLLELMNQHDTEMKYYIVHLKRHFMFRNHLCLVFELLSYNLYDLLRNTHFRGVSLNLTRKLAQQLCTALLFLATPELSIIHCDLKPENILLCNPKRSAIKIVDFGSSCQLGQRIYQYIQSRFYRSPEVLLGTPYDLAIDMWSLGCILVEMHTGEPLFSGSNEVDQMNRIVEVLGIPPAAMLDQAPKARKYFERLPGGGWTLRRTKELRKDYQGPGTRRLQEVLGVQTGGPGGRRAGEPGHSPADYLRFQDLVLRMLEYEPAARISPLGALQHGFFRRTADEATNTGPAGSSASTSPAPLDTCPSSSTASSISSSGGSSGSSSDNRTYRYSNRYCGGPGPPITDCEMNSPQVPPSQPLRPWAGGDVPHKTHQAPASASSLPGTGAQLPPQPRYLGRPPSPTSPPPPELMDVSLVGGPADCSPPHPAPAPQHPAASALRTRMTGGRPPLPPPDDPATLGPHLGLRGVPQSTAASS
T2 sequence (Q00535 whole entry): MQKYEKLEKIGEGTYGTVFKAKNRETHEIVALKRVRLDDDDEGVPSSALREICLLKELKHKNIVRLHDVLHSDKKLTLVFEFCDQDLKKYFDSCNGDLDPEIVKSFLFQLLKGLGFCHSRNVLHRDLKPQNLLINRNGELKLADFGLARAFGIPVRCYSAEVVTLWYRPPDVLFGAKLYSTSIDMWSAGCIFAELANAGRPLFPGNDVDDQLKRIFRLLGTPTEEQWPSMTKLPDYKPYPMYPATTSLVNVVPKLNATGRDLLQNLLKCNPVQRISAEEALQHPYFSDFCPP
T2 sequence (Q15078 99-307 partner limits assumed): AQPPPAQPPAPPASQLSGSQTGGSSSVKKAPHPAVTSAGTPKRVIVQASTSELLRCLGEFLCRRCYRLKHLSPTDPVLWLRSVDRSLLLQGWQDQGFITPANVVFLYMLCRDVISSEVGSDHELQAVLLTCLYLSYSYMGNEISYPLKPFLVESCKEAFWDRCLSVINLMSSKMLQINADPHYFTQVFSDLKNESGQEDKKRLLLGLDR
Chain of CLK3 (O35492 whole entry): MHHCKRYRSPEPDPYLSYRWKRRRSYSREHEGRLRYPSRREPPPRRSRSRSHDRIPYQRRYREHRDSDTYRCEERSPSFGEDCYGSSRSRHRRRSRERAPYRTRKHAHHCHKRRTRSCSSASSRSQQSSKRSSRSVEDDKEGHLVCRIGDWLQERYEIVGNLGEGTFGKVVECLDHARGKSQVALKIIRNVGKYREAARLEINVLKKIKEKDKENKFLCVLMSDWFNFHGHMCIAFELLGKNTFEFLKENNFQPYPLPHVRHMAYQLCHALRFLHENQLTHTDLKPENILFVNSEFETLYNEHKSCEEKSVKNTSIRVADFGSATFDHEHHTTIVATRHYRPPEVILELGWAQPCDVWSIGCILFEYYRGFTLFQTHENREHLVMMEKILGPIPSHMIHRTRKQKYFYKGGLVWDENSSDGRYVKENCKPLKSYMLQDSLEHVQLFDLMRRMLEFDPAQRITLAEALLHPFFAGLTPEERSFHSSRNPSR
Chain of CLK1 (P22518 whole entry): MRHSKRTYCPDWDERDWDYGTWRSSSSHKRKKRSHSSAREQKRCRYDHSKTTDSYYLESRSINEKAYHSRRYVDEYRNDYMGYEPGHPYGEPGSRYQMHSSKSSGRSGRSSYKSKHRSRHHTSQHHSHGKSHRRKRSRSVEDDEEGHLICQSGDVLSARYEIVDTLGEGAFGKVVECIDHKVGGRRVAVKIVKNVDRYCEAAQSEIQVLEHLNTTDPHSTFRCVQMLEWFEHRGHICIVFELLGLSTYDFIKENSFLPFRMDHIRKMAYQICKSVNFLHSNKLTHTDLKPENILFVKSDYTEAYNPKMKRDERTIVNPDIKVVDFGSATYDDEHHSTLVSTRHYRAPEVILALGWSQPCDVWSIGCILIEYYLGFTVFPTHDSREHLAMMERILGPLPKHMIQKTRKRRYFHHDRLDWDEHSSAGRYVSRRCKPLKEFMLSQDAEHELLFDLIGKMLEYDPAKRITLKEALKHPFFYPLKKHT
Chain of CLK2 (O35491 whole entry): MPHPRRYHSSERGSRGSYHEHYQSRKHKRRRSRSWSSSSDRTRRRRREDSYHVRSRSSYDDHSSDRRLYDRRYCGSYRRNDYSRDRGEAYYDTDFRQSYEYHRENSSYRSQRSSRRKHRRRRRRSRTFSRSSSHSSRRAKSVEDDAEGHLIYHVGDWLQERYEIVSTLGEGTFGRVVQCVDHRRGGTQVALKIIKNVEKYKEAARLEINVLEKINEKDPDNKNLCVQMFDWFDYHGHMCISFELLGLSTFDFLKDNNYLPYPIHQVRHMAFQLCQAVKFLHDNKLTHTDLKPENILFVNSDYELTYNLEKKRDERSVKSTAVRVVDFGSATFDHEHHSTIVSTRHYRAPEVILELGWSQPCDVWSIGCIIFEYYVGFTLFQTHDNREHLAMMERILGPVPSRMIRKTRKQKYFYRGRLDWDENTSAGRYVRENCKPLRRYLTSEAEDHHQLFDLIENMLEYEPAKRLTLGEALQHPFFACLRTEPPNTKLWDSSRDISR
Method for CLK1: Buffer A: 10 mM MgCl2, 1 mM EGTA, 1 mM DTT, 25 mM Tris-HCl pH 7.5, 50 μg heparin/mL. Buffer C: 60 mM β-glycerophosphate, 15 mM p-nitrophenylphosphate, 25 mM MOPS (pH 7.2), 15 mM EGTA, 15 mM MgCl2, 1 mM DTT, 1 mM sodium vanadate, 1 mM phenylphosphate.
Controls were performed with appropriate dilutions of DMSO. The GS-1, CKS, CDK7/9 tide and RS peptide substrates were obtained from Proteogenix (Oberhausbergen, France).
CDK1/cyclin B (M phase starfish oocytes, native), CDK2/cyclin A and CDK5/p25 (human, recombinant) were prepared as previously described [33]. […] ATP (3,000 Ci/mmol; 10 mCi/mL) in a final volume of 30 μL. After 30 min incubation at 30°C, the reaction was stopped by harvesting onto P81 phosphocellulose supernatant (Whatman) using a FilterMate harvester (Packard) and washing in 1% phosphoric acid. Scintillation fluid was added and the radioactivity measured in a Packard counter.
(§1) All data points for construction of dose response curves were recorded in triplicate.
Method for CLK2: (§2) Buffers. Buffer A: 10 mM MgCl2, 1 mM EGTA, 1 mM DTT, 25 mM Tris-HCl pH 7.5, 50 μg heparin/mL. Buffer C: 60 mM β-glycerophosphate, 15 mM p-nitrophenylphosphate, 25 mM MOPS (pH 7.2), 15 mM EGTA, 15 mM MgCl2, 1 mM DTT, 1 mM sodium vanadate, 1 mM phenylphosphate.
(§3) Kinase activities were assayed in buffer A or C at 30°C at a final ATP concentration of 15 μmol/L. Blank values were subtracted and activities were expressed in percent of the maximal activity, i.e. in the absence of inhibitors. Controls were performed with appropriate dilutions of DMSO.
(§4) Their kinase activity was assayed in buffer A, with 1 mg histone H1/mL, in the presence of 15 μmol/L [γ-33P] ATP (3,000 Ci/mmol; 10 mCi/mL) in a final volume of 30 μL. After 30 min incubation at 30°C, the reaction was stopped by harvesting onto P81 phosphocellulose supernatant (Whatman) using a FilterMate harvester (Packard) and washing in 1% phosphoric acid. Scintillation fluid was added and the radioactivity measured in a Packard counter.
as §1
Method for CLK4: as §2, §3, §4, §1

In the case of `Cc1cccc(-c2c[nH]c3c4c(ccc23)CNC4=O)c1` [8i, 3-(3-Methylphenyl)-6,7-dihydropyrrolo[3,4-g]indol-8(1H)-one], the pIC50 on CDK1/cyclin B was below 5.00; on CDK2/cyclin A it was below 5.00; on CDK5/p25, below 5.00; on CK1δ/ε it was below 5.00; at DYRK1A it was 5.59; on DYRK1B it was 5.39. In addition, the pIC50 on DYRK2 was 5.51; at DYRK3 it was below 5.00; on GSK-3, below 5.00; on CDK9/cyclin T it was below 5.00; at CLK1, 7.21; against CLK2, 6.39. For the same compound, the pIC50 against CLK3 was 5.29; at CLK4, 6.85.

Regarding `Cc1[nH]c2c3c(c(Br)cc2c1-c1ccccc1)CNC3=O` [12b, 5-Bromo-2-methyl-3-phenyl-6,7-dihydropyrrolo[3,4-g]indol-8(1H)-one], the pIC50 at CDK1/cyclin B is below 5.00; at CDK2/cyclin A, below 5.00; at CDK5/p25 it was below 5.00; at CK1δ/ε, below 5.00; at DYRK1A, 6.96; on DYRK1B, 6.96. For the same compound, the pIC50 is 6.96 on DYRK2; 6.92 at DYRK3; below 5.00 at GSK-3; below 5.00 at CDK9/cyclin T; 7.64 at CLK1; 7.60 at CLK2. Further, the pIC50 was 5.15 at CLK3 and above 7.52 on CLK4.

Turning to `CN1Cc2ccc3c(-c4ccccc4)c[nH]c3c2C1=O` [12d, 7-Methyl-3-phenyl-6,7-dihydropyrrolo[3,4-g]indol-8(1H)-one], the pIC50 against CDK1/cyclin B, at CDK2/cyclin A, on CDK5/p25, at CK1δ/ε, at DYRK1A and on DYRK1B was below 5.00 in each case. Also, the pIC50 at DYRK2, on DYRK3, on GSK-3, at CDK9/cyclin T, against CLK1 and against CLK2 was below 5.00 throughout. The pIC50 against CLK3 and against CLK4 was below 5.00 in each case.

For the compound `NC(=O)Cn1cc(-c2ccccc2)c2ccc3c(c21)C(=O)NC3` [15c, 2-(8-Oxo-3-phenyl-7,8-dihydropyrrolo[3,4-g]indol-1(6H)-yl)acetamide], the pIC50 against CDK1/cyclin B, on CDK2/cyclin A, at CDK5/p25, on CK1δ/ε, at DYRK1A and at DYRK1B was below 5.00 throughout. In addition, the pIC50 at DYRK2, at DYRK3, on GSK-3, at CDK9/cyclin T, against CLK1 and on CLK2 was below 5.00 each time. For the same compound, the pIC50 against CLK3 and on CLK4 was below 5.00 in each case.

For the compound `CN1Cc2ccc3c(-c4ccccc4)cn(C)c3c2C1=O` [15e, 1,7-Dimethyl-3-phenyl-6,7-dihydropyrrolo[3,4-g]indol-8(1H)-one], the pIC50 against CDK1/cyclin B, at CDK2/cyclin A, against CDK5/p25, at CK1δ/ε, at DYRK1A and on DYRK1B was below 5.00 each time. In addition, the pIC50 at DYRK2, on DYRK3, at GSK-3, at CDK9/cyclin T, against CLK1 and on CLK2 was below 5.00 each time. Also, the pIC50 on CLK3 and against CLK4 was below 5.00 in each case.

In the case of `O=C1NCc2c(-c3ccccc3)cc3c(-c4ccccc4)c[nH]c3c21` [17a, 3,5-Diphenyl-6,7-dihydropyrrolo[3,4-g]indol-8(1H)-one], the pIC50 at CDK1/cyclin B, at CDK2/cyclin A, at CDK5/p25, at CK1δ/ε, at DYRK1A and on DYRK1B was below 5.00 each time. Besides, the pIC50 on DYRK2 was below 5.00; on DYRK3, below 5.00; on GSK-3 it was below 5.00; against CDK9/cyclin T it was below 5.00; on CLK1, 5.06; at CLK2, 5.14. Further, the pIC50 against CLK3 is below 5.00; against CLK4 it was 5.89.

As to `O=C1NCc2c(-c3cccc(F)c3)cc3c(-c4ccccc4)c[nH]c3c21` [17c, 5-(3-Fluorophenyl)-3-phenyl-6,7-dihydropyrrolo[3,4-g]indol-8(1H)-one], the pIC50 against CDK1/cyclin B, at CDK2/cyclin A, at CDK5/p25, at CK1δ/ε, at DYRK1A and on DYRK1B was below 5.00 each time. Besides, the pIC50 was below 5.00 on DYRK2; below 5.00 at DYRK3; below 5.00 at GSK-3; below 5.00 against CDK9/cyclin T; 5.14 on CLK1; below 5.00 at CLK2. The pIC50 against CLK3 was below 5.00; on CLK4, 5.49.

As to `CCc1[nH]c2c3c(ccc2c1C)CNC3=O` [S18a], in the assay with CDK1/cyclin B, the “Residual enzyme activity CDK1/cyclin B” value was 94±13%. Further, the “Residual enzyme activity CDK2/cyclin A” value on CDK2/cyclin A is 99±8%. Further, at CDK5/p25, the “Residual enzyme activity CDK5/p25” value is 100±9%. In addition, the “Residual enzyme activity CK1” value in the assay with CK1δ/ε is 50±6%. The “Residual enzyme activity DYRK 1A” value on DYRK1A came to 54±1%. Moreover, the “Residual enzyme activity DYRK 1B” value on DYRK1B was 46±8%. On DYRK2, the “Residual enzyme activity DYRK 2” value is 42±12%. Further, the “Residual enzyme activity DYRK 3” value on DYRK3 amounted to 65±9%. Besides, the “Residual enzyme activity GSK3” value in the assay on GSK-3 came out at 97±3%. Moreover, the “Residual enzyme activity CDK9/cyclin T” value at CDK9/cyclin T worked out at 93±5%. In addition, at CLK1, the “Residual enzyme activity CLK 1” value came out at 20±2%. Besides, the “Residual enzyme activity CLK 2” value on CLK2 is on record as 31±4%. Further, the “Residual enzyme activity CLK 3” value at CLK3 is given as 92±12%. In addition, on CLK4, the “Residual enzyme activity CLK 4” value is listed as 7±2%.

As for `Cc1[nH]c2c3c(ccc2c1C)CNC3=O` [S18b], the “Residual enzyme activity CDK1/cyclin B” value with CDK1/cyclin B was 93±26%. In addition, the “Residual enzyme activity CDK2/cyclin A” value on CDK2/cyclin A is 103±2%. Besides, the “Residual enzyme activity CDK5/p25” value on CDK5/p25 worked out at 111±18%. In addition, the “Residual enzyme activity CK1” value in the assay on CK1δ/ε was 75±3%. The “Residual enzyme activity DYRK 1A” value at DYRK1A worked out at 82±5%. Further, the “Residual enzyme activity DYRK 1B” value on DYRK1B is on record as 77±11%. In addition, the “Residual enzyme activity DYRK 2” value on DYRK2 worked out at 61±4%. For the same compound, on DYRK3, the “Residual enzyme activity DYRK 3” value is given as 89±8%. In addition, the “Residual enzyme activity GSK3” value in the assay on GSK-3 is given as 135±18%. The “Residual enzyme activity CDK9/cyclin T” value at CDK9/cyclin T stood at 104±7%. Besides, the “Residual enzyme activity CLK 1” value at CLK1 turned out to be 92±8%. The “Residual enzyme activity CLK 2” value on CLK2 is reported as 63±17%. Also, the “Residual enzyme activity CLK 3” value on CLK3 stood at 104±14%. Also, the “Residual enzyme activity CLK 4” value on CLK4 was found to be 48±6%.
